Test results published in US20180155344A1, “TRICYCLIC PIPERIDINE COMPOUNDS” (ACTELION PHARMACEUTICALS LTD, priority 2015, published 2018).
pIC50: −log10 of the molar value.

Molecular target: T1, human TPH1 (Homo sapiens, UniProt P17752)
T1 sequence (P17752 1-444): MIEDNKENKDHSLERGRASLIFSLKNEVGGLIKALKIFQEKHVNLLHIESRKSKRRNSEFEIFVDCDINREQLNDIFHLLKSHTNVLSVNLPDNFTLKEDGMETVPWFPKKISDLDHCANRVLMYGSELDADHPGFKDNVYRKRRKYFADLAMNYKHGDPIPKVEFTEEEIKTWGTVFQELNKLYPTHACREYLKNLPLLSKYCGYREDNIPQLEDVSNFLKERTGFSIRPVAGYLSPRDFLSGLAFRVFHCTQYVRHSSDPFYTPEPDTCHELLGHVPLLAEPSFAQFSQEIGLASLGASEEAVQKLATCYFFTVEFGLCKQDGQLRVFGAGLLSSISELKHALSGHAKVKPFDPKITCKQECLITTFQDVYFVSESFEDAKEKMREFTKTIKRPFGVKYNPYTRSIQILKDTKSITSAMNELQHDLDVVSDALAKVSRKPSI
Assay: biochemical
Procedure, shortened: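 Inhibition is derived from 5-hydroxy-L-tryptophan fluorescence (540 nm emission, 300 nm excitation) after perchloric acid stop, relative to DMSO vehicle. Recombinant full-length human enzyme (40-80 nM) reacts with 40 μM tryptophan plus 100 μM methyltetrahydropterin, pH 7.6 Tris/DTT/catalase, 15° C, 60 min.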

Compound	pIC50
COc1ccc(C2c3c(nc4cc(C(F)(F)F)ccn34)CCN2C(=O)COc2cccnc2Cl)cc1 (stereo not shown) [Example 3.24.2, 2-((2-chloropyridin-3-yl)oxy)-1-(1-(4-methoxyphenyl)-7-(trifluoromethyl)-3,4-dihydroimidazo[1,2-a:5,4-c′]dipyridin-2(1H)-yl)ethan-1-one]	6.37
CCOc1ccc(C2c3c(nc4cc(C(F)(F)F)ccn34)CCN2C(=O)COc2ccc3ccccc3c2)cc1 (stereo not shown) [Example 3.25.1, 1-(1-(4-ethoxyphenyl)-7-(trifluoromethyl)-3,4-dihydroimidazo[1,2-a:5,4-c′]dipyridin-2(1H)-yl)-2-(naphthalen-2-yloxy)ethan-1-one]	6.98
CCOc1ccc(C2c3c(nc4cc(C(F)(F)F)ccn34)CCN2C(=O)COc2ccc(CN3CCOCC3)cc2Cl)cc1 (stereo not shown) [Example 3.25.2, 2-(2-chloro-4-(morpholinomethyl)phenoxy)-1-(1-(4-ethoxyphenyl)-7-(trifluoromethyl)-3,4-dihydroimidazo[1,2-a:5,4-c′]dipyridin-2(1H)-yl)ethan-1-one]	7.70
CCOc1ccc(C2c3c(nc4cc(C(F)(F)F)ccn34)CCN2C(=O)COc2ccc(CN3CCOCC3)c(C)c2C)cc1 (stereo not shown) [Example 3.25.3, 2-(2,3-dimethyl-4-(morpholinomethyl)phenoxy)-1-(1-(4-ethoxyphenyl)-7-(trifluoromethyl)-3,4-dihydroimidazo[1,2-a:5,4-c′]dipyridin-2(1H)-yl)ethan-1-one]	7.29
O=C(COc1ccc2ccccc2c1)N1CCc2nc3cc(C(F)(F)F)ccn3c2C1c1ccc(OC(F)F)cc1 (stereo not shown) [Example 3.26.1, 1-(1-(4-(difluoromethoxy)phenyl)-7-(trifluoromethyl)-3,4-dihydroimidazo[1,2-a:5,4-c′]dipyridin-2(1H)-yl)-2-(naphthalen-2-yloxy)ethan-1-one]	6.92
O=C(COc1ccc(CN2CCOCC2)cc1Cl)N1CCc2nc3cc(C(F)(F)F)ccn3c2C1c1ccc(OC(F)F)cc1 (stereo not shown) [Example 3.26.2, 2-(2-chloro-4-(morpholinomethyl)phenoxy)-1-(1-(4-(difluoromethoxy)phenyl)-7-(trifluoromethyl)-3,4-dihydroimidazo[1,2-a:5,4-c′]dipyridin-2(1H)-yl)ethan-1-one]	7.27
O=C(COc1ccc(CN2CCOCC2)cc1Cl)N1CCc2nc3cc(C(F)(F)F)ccn3c2C1c1ccc(OC(F)(F)F)cc1 (stereo not shown) [Example 3.27.1, 2-(2-chloro-4-(morpholinomethyl)phenoxy)-1-(1-(4-(trifluoromethoxy)phenyl)-7-(trifluoromethyl)-3,4-dihydroimidazo[1,2-a:5,4-c′]dipyridin-2(1H)-yl)ethan-1-one]	6.87
O=C(COc1ccc2ccccc2c1)N1CCc2nc3cc(C(F)(F)F)ccn3c2C1c1ccc(C(F)(F)F)cc1 (stereo not shown) [Example 3.28.1, 2-(naphthalen-2-yloxy)-1-(7-(trifluoromethyl)-1-(4-(trifluoromethyl)phenyl)-3,4-dihydroimidazo[1,2-a:5,4-c′]dipyridin-2(1H)-yl)ethan-1-one]	6.81
O=C(COc1ccc(CN2CCOCC2)cc1Cl)N1CCc2nc3cc(C(F)(F)F)ccn3c2C1c1ccc(C(F)(F)F)cc1 (stereo not shown) [Example 3.28.2, 2-(2-chloro-4-(morpholinomethyl)phenoxy)-1-(7-(trifluoromethyl)-1-(4-(trifluoromethyl)phenyl)-3,4-dihydroimidazo[1,2-a:5,4-c′]dipyridin-2(1H)-yl)ethan-1-one]	7.11
O=C(COc1ccc2ccccc2c1)N1CCc2nc3cc(C(F)(F)F)ccn3c2C1c1ccc(F)cc1 (stereo not shown) [Example 3.29.1, 1-(1-(4-fluorophenyl)-7-(trifluoromethyl)-3,4-dihydroimidazo[1,2-a:5,4-c′]dipyridin-2(1H)-yl)-2-(naphthalen-2-yloxy)ethan-1-one]	6.51
O=C(COc1ccc(CN2CCOCC2)cc1Cl)N1CCc2nc3cc(C(F)(F)F)ccn3c2C1c1ccc(F)cc1 (stereo not shown) [Example 3.29.2, 2-(2-chloro-4-(morpholinomethyl)phenoxy)-1-(1-(4-fluorophenyl)-7-(trifluoromethyl)-3,4-dihydroimidazo[1,2-a:5,4-c′]dipyridin-2(1H)-yl)ethan-1-one]	6.69
O=C(COc1ccc2ccccc2c1)N1CCc2nc3cc(C(F)(F)F)ccn3c2C1c1ccc(Cl)cc1 (stereo not shown) [Example 3.30.1, 1-(1-(4-chlorophenyl)-7-(trifluoromethyl)-3,4-dihydroimidazo[1,2-a:5,4-c′]dipyridin-2(1H)-yl)-2-(naphthalen-2-yloxy)ethan-1-one]	7.23
O=C(COc1ccc(CN2CCOCC2)cc1Cl)N1CCc2nc3cc(C(F)(F)F)ccn3c2C1c1ccc(Cl)cc1 (stereo not shown) [Example 3.30.2, 2-(2-chloro-4-(morpholinomethyl)phenoxy)-1-(1-(4-chlorophenyl)-7-(trifluoromethyl)-3,4-dihydroimidazo[1,2-a:5,4-c′]dipyridin-2(1H)-yl)ethan-1-one]	7.70
COc1cccc(C2c3c(nc4cc(C(F)(F)F)ccn34)CCN2C(=O)COc2ccc3ccccc3c2)c1 (stereo not shown) [Example 3.32.1, 1-(1-(3-methoxyphenyl)-7-(trifluoromethyl)-3,4-dihydroimidazo[1,2-a:5,4-c′]dipyridin-2(1H)-yl)-2-(naphthalen-2-yloxy)ethan-1-one]	6.64
Cc1cc(C2c3c(nc4cc(C(F)(F)F)ccn34)CCN2C(=O)COc2ccc3ccccc3c2)ccc1F (stereo not shown) [Example 3.33.1, 1-(1-(4-fluoro-3-methylphenyl)-7-(trifluoromethyl)-3,4-dihydroimidazo[1,2-a:5,4-c′]dipyridin-2(1H)-yl)-2-(naphthalen-2-yloxy)ethan-1-one]	6.90
Cc1cc(C2c3c(nc4cc(C(F)(F)F)ccn34)CCN2C(=O)COc2ccc(CN3CCOCC3)cc2Cl)ccc1F (stereo not shown) [Example 3.33.2, 2-(2-chloro-4-(morpholinomethyl)phenoxy)-1-(1-(4-fluoro-3-methylphenyl)-7-(trifluoromethyl)-3,4-dihydroimidazo[1,2-a:5,4-c′]dipyridin-2(1H)-yl)ethan-1-one]	6.96
O=C(COc1ccc2ccccc2c1)N1CCc2nc3cc(C(F)(F)F)ccn3c2C1c1ccc(F)c(F)c1 (stereo not shown) [Example 3.34.1, 1-(1-(3,4-difluorophenyl)-7-(trifluoromethyl)-3,4-dihydroimidazo[1,2-a:5,4-c′]dipyridin-2(1H)-yl)-2-(naphthalen-2-yloxy)ethan-1-one]	6.31
O=C(COc1ccc(CN2CCOCC2)cc1Cl)N1CCc2nc3cc(C(F)(F)F)ccn3c2C1c1ccc(F)c(F)c1 (stereo not shown) [Example 3.34.2, 2-(2-chloro-4-(morpholinomethyl)phenoxy)-1-(1-(3,4-difluorophenyl)-7-(trifluoromethyl)-3,4-dihydroimidazo[1,2-a:5,4-c′]dipyridin-2(1H)-yl)ethan-1-one]	6.62
O=C(COc1ccc2ccccc2c1)N1CCc2nc3cc(C(F)(F)F)ccn3c2C1c1ccccc1F (stereo not shown) [Example 3.35.1, 1-(1-(2-fluorophenyl)-7-(trifluoromethyl)-3,4-dihydroimidazo[1,2-a:5,4-c′]dipyridin-2(1H)-yl)-2-(naphthalen-2-yloxy)ethan-1-one]	7.77
O=C(COc1ccc(CN2CCOCC2)cc1Cl)N1CCc2nc3cc(C(F)(F)F)ccn3c2C1c1ccccc1F (stereo not shown) [Example 3.35.2, 2-(2-chloro-4-(morpholinomethyl)phenoxy)-1-(1-(2-fluorophenyl)-7-(trifluoromethyl)-3,4-dihydroimidazo[1,2-a:5,4-c′]dipyridin-2(1H)-yl)ethan-1-one]	7.80
Cn1nc(OCC(=O)N2CCc3nc4cc(C(F)(F)F)ccn4c3C2c2ccccc2F)c(Cl)c1C(F)(F)F (stereo not shown) [Example 3.35.3, 2-((4-chloro-1-methyl-5-(trifluoromethyl)-1H-pyrazol-3-yl)oxy)-1-(1-(2-fluorophenyl)-7-(trifluoromethyl)-3,4-dihydroimidazo[1,2-a:5,4-c′]dipyridin-2(1H)-yl)ethan-1-one]	6.47
O=C(COc1ccc2ccccc2c1)N1CCc2nc3cc(C(F)(F)F)ccn3c2C1c1cccnc1 (stereo not shown) [Example 3.36.1, 2-(naphthalen-2-yloxy)-1-(1-(pyridin-3-yl)-7-(trifluoromethyl)-3,4-dihydroimidazo[1,2-a:5,4-c′]dipyridin-2(1H)-yl)ethan-1-one]	6.68
O=C(COc1ccc(CN2CCOCC2)cc1Cl)N1CCc2nc3cc(C(F)(F)F)ccn3c2C1c1cccnc1 (stereo not shown) [Example 3.36.2, 2-(2-chloro-4-(morpholinomethyl)phenoxy)-1-(1-(pyridin-3-yl)-7-(trifluoromethyl)-3,4-dihydroimidazo[1,2-a:5,4-c′]dipyridin-2(1H)-yl)ethan-1-one]	6.31
O=C(COc1ccc(CN2CCOCC2)cc1Cl)N1CCc2nc3cc(C(F)(F)F)ccn3c2C1c1ccc(Cl)nc1 (stereo not shown) [Example 3.37.1, 2-(2-chloro-4-(morpholinomethyl)phenoxy)-1-(1-(6-chloropyridin-3-yl)-7-(trifluoromethyl)-3,4-dihydroimidazo[1,2-a:5,4-c′]dipyridin-2(1H)-yl)ethan-1-one]	7.30
O=C(COc1ccc2ccccc2c1)N1CCc2nc3cc(C(F)(F)F)ccn3c2C1c1ccc(Cl)nc1 (stereo not shown) [Example 3.37.2, 1-(1-(6-chloropyridin-3-yl)-7-(trifluoromethyl)-3,4-dihydroimidazo[1,2-a:5,4-c′]dipyridin-2(1H)-yl)-2-(naphthalen-2-yloxy)ethan-1-one]	7.24
